{
  "source": "patent US9821173B2",
  "about": "“Anti-cancer agents and methods of use” (Case Western Reserve University, priority 2013, dated 2017)",
  "key": {"rat liver TrxR": {"biological_target": "rat liver TrxR (Rattus norvegicus, UniProt O89049)", "sequence (O89049 whole entry)": "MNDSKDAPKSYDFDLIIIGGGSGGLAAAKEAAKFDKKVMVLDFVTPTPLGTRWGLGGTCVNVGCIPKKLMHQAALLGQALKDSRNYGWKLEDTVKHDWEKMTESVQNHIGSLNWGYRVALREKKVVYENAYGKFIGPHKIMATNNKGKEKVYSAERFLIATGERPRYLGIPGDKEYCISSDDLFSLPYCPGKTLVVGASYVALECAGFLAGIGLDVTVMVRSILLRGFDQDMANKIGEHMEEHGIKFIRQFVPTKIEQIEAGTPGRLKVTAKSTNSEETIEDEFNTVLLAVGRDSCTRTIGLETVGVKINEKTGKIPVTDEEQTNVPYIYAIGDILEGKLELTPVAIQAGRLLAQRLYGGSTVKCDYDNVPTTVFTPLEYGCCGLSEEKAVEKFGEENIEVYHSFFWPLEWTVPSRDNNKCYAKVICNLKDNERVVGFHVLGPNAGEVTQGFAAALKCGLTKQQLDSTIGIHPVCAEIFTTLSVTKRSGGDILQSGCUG", "assay": "Thioredoxin reductase inhibition (DTNB assay)", "conditions": "40 μM compound, 600 nM TrxR, 25° C."}, "[1]": {"assay": "Reactivity toward L-cysteine (DTNB)", "conditions": "400 μM L-cysteine with equivalent concentration of compound"}, "BSA": {"biological_target": "BSA (Bos taurus, UniProt P02769)", "sequence (P02769 25-607)": "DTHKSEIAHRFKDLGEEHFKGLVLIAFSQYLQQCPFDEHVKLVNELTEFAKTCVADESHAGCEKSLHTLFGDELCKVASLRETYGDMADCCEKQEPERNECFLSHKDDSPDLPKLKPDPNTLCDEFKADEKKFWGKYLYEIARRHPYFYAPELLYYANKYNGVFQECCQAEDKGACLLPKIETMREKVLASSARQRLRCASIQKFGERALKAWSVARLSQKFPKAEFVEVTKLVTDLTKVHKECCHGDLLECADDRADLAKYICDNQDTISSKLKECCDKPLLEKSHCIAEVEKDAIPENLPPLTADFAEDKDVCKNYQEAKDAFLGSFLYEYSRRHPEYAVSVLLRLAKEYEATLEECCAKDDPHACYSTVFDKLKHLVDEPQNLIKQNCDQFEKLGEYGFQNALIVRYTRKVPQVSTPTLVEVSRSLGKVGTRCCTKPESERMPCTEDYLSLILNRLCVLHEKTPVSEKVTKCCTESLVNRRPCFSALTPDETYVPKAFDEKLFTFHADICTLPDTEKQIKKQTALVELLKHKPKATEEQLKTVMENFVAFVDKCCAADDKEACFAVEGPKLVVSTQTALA", "assay": "Reactivity of Au(I)-compounds with BSA thiol (DTNB -SH titer)", "set-up": "species or system bovine", "conditions": "120 μM compound, Au(I)/BSA ratios up to 4:1, one hour, 37° C., PBS", "description": "PBS was used as the reaction buffer.\nWe tested the ability of various Au(I)-complexes to non-selectively react with BSA. […] P2 resin was effective in retaining Au(I)-containing compounds including compound 3 and compound 4. However, BSA was not retained in the resin as >95% of the BSA loaded into the Penefsky column is recovered in the eluant. […] Values obtained from reactions containing BSA incubated with the various Au(I) complexes were compared to identical reactions containing BSA alone and eluted through Penefsky columns."}, "IGF1R": {"biological_target": "T1, IGF1R (Homo sapiens, UniProt P08069)", "T1 construct": "purchased Luceome Biotechnologies (Tucson, Ariz.)", "assay": "Kinase inhibition screening (Luceome)", "format": "biochemical", "conditions": "10 μM", "text": "(§1) It is well established that dysfunctional and unregulated kinase activity plays significant roles in cancer initiation and progression. […] Inspection of the data provides several interesting observations. […] These inhibitory effects at this concentration are consistent with their measured IC50 values that are also in the μM range (Table 1). In addition, several kinases display overlapping inhibitory responses to both gold(I) compounds. Many of these are of particular interest since they are involved in cancer initiation and/or progression. For example, the Aurora kinase family members, Aurora A and Aurora B, as well as the MARK2 and MARK3 kinases function during mitosis to regulate cell division. These kinases are important therapeutic targets as their activities are often deregulated in many types of cancers. Other kinases such as RPS6KA3 and MLK3 are involved in the MAP kinase and JNK pathways which are also important in cancer progression."}, "FYN": {"biological_target": "T2, FYN (Homo sapiens, UniProt P06241)", "T2 construct": "purchased Luceome Biotechnologies (Tucson, Ariz.)", "T2 sequence (P06241 whole entry)": "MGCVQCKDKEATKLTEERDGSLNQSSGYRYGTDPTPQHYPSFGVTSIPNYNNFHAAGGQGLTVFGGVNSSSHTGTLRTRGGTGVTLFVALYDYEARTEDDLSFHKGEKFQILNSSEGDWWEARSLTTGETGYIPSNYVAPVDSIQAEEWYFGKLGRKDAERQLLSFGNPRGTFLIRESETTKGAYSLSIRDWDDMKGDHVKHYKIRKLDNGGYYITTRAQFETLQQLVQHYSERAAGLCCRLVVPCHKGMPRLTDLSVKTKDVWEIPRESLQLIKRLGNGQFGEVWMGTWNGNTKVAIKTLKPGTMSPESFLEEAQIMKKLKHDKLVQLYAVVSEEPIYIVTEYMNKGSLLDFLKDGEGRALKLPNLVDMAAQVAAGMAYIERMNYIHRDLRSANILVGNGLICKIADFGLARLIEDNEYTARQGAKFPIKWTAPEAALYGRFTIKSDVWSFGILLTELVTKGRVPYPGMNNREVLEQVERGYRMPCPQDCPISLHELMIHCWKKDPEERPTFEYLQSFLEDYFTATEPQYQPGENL", "assay": "Kinase inhibition screening (Luceome)", "format": "biochemical", "conditions": "10 μM", "text": "as §1"}, "LYN": {"biological_target": "T3, LYN (Homo sapiens, UniProt P07948)", "T3 construct": "purchased Luceome Biotechnologies (Tucson, Ariz.)", "T3 sequence (P07948 whole entry)": "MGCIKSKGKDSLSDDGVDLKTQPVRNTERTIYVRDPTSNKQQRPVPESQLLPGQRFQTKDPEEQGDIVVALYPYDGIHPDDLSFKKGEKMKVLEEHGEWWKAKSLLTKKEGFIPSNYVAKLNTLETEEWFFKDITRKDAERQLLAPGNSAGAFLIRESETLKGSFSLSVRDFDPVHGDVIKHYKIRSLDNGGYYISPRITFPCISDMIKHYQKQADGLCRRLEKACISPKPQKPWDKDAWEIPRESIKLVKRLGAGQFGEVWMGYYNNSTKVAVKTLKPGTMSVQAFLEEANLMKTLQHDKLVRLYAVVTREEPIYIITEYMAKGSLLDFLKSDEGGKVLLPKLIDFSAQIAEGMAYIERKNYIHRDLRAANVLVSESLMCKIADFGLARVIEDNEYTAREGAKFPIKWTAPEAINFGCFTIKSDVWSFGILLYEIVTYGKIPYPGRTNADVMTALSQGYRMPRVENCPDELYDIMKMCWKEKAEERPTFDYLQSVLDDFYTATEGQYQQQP", "assay": "Kinase inhibition screening (Luceome)", "format": "biochemical", "conditions": "10 μM", "text": "as §1"}, "ITK": {"biological_target": "T4, ITK (Homo sapiens, UniProt Q08881)", "T4 construct": "purchased Luceome Biotechnologies (Tucson, Ariz.)", "T4 sequence (Q08881 whole entry)": "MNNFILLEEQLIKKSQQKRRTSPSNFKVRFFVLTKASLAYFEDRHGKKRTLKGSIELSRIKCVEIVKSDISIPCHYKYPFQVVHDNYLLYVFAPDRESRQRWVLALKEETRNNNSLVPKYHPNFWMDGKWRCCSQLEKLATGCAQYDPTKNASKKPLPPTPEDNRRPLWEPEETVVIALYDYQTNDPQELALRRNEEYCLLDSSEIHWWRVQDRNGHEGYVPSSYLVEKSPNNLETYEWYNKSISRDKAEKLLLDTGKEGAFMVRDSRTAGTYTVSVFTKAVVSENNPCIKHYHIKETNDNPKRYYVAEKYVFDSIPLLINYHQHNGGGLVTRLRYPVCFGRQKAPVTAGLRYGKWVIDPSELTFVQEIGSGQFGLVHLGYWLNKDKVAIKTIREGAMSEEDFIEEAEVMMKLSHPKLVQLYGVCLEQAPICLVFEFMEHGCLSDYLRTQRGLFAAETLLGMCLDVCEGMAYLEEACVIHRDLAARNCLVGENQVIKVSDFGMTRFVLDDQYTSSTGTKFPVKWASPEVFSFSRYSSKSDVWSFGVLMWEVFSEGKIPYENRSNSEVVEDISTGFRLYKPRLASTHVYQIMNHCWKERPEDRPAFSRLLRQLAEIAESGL", "assay": "Kinase inhibition screening (Luceome)", "format": "biochemical", "conditions": "10 μM", "text": "as §1"}, "MARK1": {"biological_target": "T5, MARK1 (Homo sapiens, UniProt Q9P0L2)", "T5 construct": "purchased Luceome Biotechnologies (Tucson, Ariz.)", "T5 sequence (Q9P0L2 whole entry)": "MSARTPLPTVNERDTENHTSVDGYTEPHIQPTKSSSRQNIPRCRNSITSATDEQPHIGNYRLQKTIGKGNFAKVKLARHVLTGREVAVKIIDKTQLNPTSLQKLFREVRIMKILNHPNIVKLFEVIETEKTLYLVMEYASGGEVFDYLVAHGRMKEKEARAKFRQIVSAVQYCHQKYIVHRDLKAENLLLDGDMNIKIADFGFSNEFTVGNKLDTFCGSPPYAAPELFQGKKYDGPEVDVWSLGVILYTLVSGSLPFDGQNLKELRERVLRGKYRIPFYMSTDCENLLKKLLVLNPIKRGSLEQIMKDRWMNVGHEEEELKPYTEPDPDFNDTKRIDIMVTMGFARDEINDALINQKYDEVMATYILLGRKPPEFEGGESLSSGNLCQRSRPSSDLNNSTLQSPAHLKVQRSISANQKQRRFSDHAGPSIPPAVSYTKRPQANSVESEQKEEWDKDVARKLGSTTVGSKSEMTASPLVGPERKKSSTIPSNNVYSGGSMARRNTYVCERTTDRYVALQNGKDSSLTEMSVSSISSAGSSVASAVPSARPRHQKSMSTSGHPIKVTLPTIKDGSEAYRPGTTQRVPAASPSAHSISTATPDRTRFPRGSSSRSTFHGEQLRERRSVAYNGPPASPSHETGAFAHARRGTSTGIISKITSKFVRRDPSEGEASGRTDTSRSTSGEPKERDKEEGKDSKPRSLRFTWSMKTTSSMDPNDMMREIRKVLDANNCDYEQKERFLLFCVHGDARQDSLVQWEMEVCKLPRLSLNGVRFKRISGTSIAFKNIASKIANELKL", "assay": "Kinase inhibition screening (Luceome)", "format": "biochemical", "conditions": "10 μM", "text": "as §1"}, "MARK2": {"biological_target": "T6, MARK2 (Homo sapiens, UniProt Q7KZI7)", "T6 construct": "purchased Luceome Biotechnologies (Tucson, Ariz.)", "assay": "Kinase inhibition screening (Luceome)", "format": "biochemical", "conditions": "10 μM", "text": "as §1"}, "FLT3": {"biological_target": "T7, FLT3 (Homo sapiens, UniProt P36888)", "T7 construct": "purchased Luceome Biotechnologies (Tucson, Ariz.)", "T7 sequence (P36888 27-993)": "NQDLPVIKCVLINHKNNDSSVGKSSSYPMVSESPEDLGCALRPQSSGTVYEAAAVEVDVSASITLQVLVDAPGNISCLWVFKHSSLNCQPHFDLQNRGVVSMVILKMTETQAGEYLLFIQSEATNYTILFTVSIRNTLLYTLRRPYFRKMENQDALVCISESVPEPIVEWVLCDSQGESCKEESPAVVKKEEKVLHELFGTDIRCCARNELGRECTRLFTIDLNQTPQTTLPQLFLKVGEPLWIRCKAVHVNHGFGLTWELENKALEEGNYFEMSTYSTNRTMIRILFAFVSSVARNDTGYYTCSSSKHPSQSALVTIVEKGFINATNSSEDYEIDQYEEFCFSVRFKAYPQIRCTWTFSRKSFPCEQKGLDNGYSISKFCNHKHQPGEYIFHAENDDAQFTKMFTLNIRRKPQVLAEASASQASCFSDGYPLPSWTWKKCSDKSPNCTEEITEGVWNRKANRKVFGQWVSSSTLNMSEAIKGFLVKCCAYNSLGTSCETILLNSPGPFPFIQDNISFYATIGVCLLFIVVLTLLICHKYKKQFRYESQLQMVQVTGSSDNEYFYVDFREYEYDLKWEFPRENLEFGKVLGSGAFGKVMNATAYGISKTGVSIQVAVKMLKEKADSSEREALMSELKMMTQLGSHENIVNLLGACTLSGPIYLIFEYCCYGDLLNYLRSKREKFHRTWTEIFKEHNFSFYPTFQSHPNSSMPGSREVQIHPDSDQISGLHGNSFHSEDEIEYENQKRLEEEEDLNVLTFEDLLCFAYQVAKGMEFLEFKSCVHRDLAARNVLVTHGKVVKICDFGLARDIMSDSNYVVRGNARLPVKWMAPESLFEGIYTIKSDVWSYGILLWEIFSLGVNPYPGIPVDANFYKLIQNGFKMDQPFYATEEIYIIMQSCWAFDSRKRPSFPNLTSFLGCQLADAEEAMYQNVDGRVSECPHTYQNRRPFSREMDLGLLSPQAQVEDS", "assay": "Kinase inhibition screening (Luceome)", "format": "biochemical", "conditions": "10 μM", "text": "as §1"}, "GSK3α": {"biological_target": "T8, GSK3α (Homo sapiens, UniProt P49840)", "T8 construct": "purchased Luceome Biotechnologies (Tucson, Ariz.)", "T8 sequence (P49840 whole entry)": "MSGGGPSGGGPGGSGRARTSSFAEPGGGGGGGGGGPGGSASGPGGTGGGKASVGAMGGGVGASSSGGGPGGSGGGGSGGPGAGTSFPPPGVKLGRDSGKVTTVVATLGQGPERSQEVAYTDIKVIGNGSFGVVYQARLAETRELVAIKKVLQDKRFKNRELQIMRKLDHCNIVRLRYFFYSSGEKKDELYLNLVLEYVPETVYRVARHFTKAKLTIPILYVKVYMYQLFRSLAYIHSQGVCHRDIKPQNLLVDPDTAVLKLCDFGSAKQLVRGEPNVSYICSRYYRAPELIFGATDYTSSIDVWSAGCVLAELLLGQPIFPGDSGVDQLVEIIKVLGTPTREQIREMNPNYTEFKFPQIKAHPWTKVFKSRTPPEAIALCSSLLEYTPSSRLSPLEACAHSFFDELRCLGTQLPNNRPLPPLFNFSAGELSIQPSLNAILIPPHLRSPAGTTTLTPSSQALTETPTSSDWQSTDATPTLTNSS", "assay": "Kinase inhibition screening (Luceome)", "format": "biochemical", "conditions": "10 μM", "text": "as §1"}},
  "note": "“Also recorded” adds a separate entry of the source.",
  "data": [
    {"compound": "CC(C)(C)OC(=O)n1ccc2c[c]([Au-][P+](c3ccccc3)(c3ccccc3)c3ccccc3)ccc21", "note": "[Compound 3, 5-{Triphenylphosphine aurate(I)}-tert-butyl1H-indole-1-carboxylate]", "values": [
      {"measurement": "inhibition of TrxR activity", "setting": "rat liver TrxR", "result": 17, "unit": "%"},
      {"measurement": "change in free -SH on L-cysteine", "setting": "[1]", "result": "does not change the titer of free —SH; also recorded: does not cause a change in the amount of free —SH"},
      {"measurement": "reactivity with BSA (relative thiol content, -SH titer)", "setting": "BSA", "result": "relative thiol content of BSA remains unchanged"}
    ]},
    {"compound": "CC(C)(C)OC(=O)n1ccc2c[c]([Au-][P+](C3CCCCC3)(C3CCCCC3)C3CCCCC3)ccc21", "note": "[Compound 4, 5-{Tricyclohexylphosphine aurate(I)}-tert-butyl1H-indole-1-carboxylate]", "values": [
      {"measurement": "% Inhibition IGF1R", "setting": "IGF1R", "result": 4.7, "unit": "%"},
      {"measurement": "% Inhibition FYN", "setting": "FYN", "result": 1.2, "unit": "%"},
      {"measurement": "% Inhibition LYN", "setting": "LYN", "result": 0, "unit": "%"},
      {"measurement": "% Inhibition ITK", "setting": "ITK", "result": 3.1, "unit": "%"},
      {"measurement": "% Inhibition MARK1", "setting": "MARK1", "result": 11.9, "unit": "%"},
      {"measurement": "% Inhibition MARK2", "setting": "MARK2", "result": 26.2, "unit": "%"},
      {"measurement": "% Inhibition FLT3", "setting": "FLT3", "result": 0, "unit": "%"},
      {"measurement": "% Inhibition GSK3α", "setting": "GSK3α", "result": 5.8, "unit": "%"}
    ]}
  ]
}
